Drawing on patent US20240101535A1, “DIHYDROISOQUINOLINONE DERIVATIVE AND APPLICATION THEREOF” (ETERN BIOPHARMA (SHANGHAI) CO., LTD., priority 2020, published 2024), this text covers IC50 for 18 molecules.

The target of experiment [1] is WDR5 protein (22-334aa) with MLL1 polypeptide (3672-3773aa) (Homo sapiens, UniProt P61964). Put plainly: WDR5-MLL PPI inhibitory activity test (HTRF). It counts as binding. To be noted: His-tagged WDR5 and biotin-tagged MLL1 polypeptide. An excerpt:
Test Example 1: WDR5-MLL PPI Inhibitory Activity Test
Effect of the compounds on WDR5 (WD Repeat Domain 5) and MLL1 (mixed-lineage leukemia 1) peptides at molecular level.
The effect of the compound on the interaction of WDR5 protein (22-334aa) with MLL1 polypeptide (3672-3773aa) was detected by HTRF (Homogeneous Time-Resolved Fluorescence) technology. When the N-terminal His-tagged WDR5 recognized by the Anti-6His-Eu cryptate donor interacts with the biotin-tagged MLL1 polypeptide recognized by the streptavidin-APC receptor, the donor and acceptor are pulled close enough to produce fluorescence resonance energy transfer (FRET). […] Therefore, the decrease in FRET signal can reflect the compound's inhibition on the interaction of WDR5 with MLL1 polypeptide.
The compound to be tested was diluted 3-fold with DMSO. […] Then the compound was diluted with reaction buffer (25 mM HEPES pH=7.5, 100 mM NaCl, 0.05% Tween 20) to control the final concentration of DMSO at 0.5%. In a 384-well plate, 1 μL of compound and 3 μL of 42 nM WDR5 protein were added, centrifuged at 1000 rpm for 1 min, incubated at room temperature for 60 min, followed by adding 3 μL of 333 nM MLL1 polypeptide with incubation at room temperature for 10 min, and followed by adding 3 μL of a mixed liquid of Anti-6His-Eu cryptate and streptavidin-APC with centrifugation at 1000 rpm for 1 mi and incubation at room temperature protected from light for 60 min, using a multifunction microplate reader (EnVision®2105) to read the signal. The following controls were set up per plate: control group (1 μL with 5% DMSO reaction buffer, 3 μL of 42 nM WDR5, 3 μL of MLL1 polypeptide, 3 μL of Anti-6His-Eu cryptate and streptavidin-APC). Blank group (1 μL reaction buffer with 5% DMSO, 3 μL reaction buffer, 3 μL MLL1 polypeptide, 3 μL Anti-6His-Eu cryptate and streptavidin-APC). The test data was calculated according to the signal ratio of two beams of fluorescence at different wavelengths: (665 nm signal/620 nm signal)*10000. […] The IC50 value was calculated using XLfit software.

The test system of another experiment is MV4-11 cells. Kind of experiment: MV4-11 cell proliferation inhibition experiment (CellTiter-Glo). It is filed as cell-based. As to conditions: 6 days, read-out: cell proliferation inhibitory activity. On the procedure: Test Example 2: MV4-11 Cell (ATCC: CRL-9591) Proliferation Inhibition Experiment
ATP in living cells was quantitatively detected by CellTiter-Glo (Promega-G7573) Luminescence Cell Viability Assay Kit to determine the effect of the compounds to be tested on cell proliferation. • Step 1: MV4-11 cells were seeded in 96-well plates (Greiner-655098) at a density of 1,500 cells per well with a volume of 140 μL per well; Cell culture medium components included RPM11640 (Gibco-A10491-01)+10% FBS (Gibco-10099-141C)+1% Penicillin-Streptomycin (5,000 U/mL, Gibco-15070-063). • Step 2: On the day of cell seeding, the cells were treated with the compound to be tested. The compound to be tested was diluted with a 3-fold gradient, and a total of 9 concentration gradients were set. DMSO (Sigma, D2650) with 0.5% final concentration or a DMSO solution containing the compound to be tested was added per well with 2 or 3 replicate wells at each concentration point. The plates were incubated at 37° C. in a 5% CO2 incubator (Thermo Scientific Steri-Cycle 371) for 6 days. • Step 3: The cell viability in the control and treatment groups was detected with CellTiter-Glo Luminescent Cell Viability Assay Kit. 50 μL of CellTiter-Glo was added per well, mixed well, and incubated for 15 min at room temperature protected from light. According to the kit instructions, the chemiluminescence signal was read using a multifunctional microplate reader (EnVision, PerkinElmer).
The inhibition percentage (%) of the compound at each concentration point was calculated by the following formula:
Inhibition Percentage (%)=(1−signal value of the group treated with the compound/signal value of the group treated with DMSO)*100.
The value of cell proliferation semi-inhibitory concentration IC50 was calculated using GraphPad Prism software, and the results are shown in Table 2.

Counter-ions that a name gives are not always drawn. Like-named read-outs stand apart in the source and are kept apart here. Where only a bound is given, the exact number is not on record here.

Regarding `CCOc1cc([C@H](C)N2CC3(CC3)c3c(CN4CCN(CC)CC4)cc(Cn4ccnc4NC)cc3C2=O)ncc1F` [Compound 57], the IC50 in experiment [1] is < 20 nM; in the experiment on MV4-11 cells (Homo sapiens, 144 h) it was < 50 nM.

Take `CCOc1cc([C@H](C)N2CC3(CCC3)c3c(CN4CCN(S(C)(=O)=O)CC4)cc(Cn4ccnc4NC)cc3C2=O)ncc1F` [Compound 78, (S)-2′-(1-(4-ethoxy-5-fluoropyridine-2-yl)ethyl)-7′-((2-(methylamino)-1H-imidazol-1-yl)methyl)-5′-((4-(methylsulfonyl)piperazin-1-yl)methyl)-2′,3′-dihydro-1′H-spiro[cyclobutan-1,4′-isoquinoline]-1′-one]: the IC50 is < 20 nM in experiment [1] and < 50 nM in the experiment on MV4-11 cells (Homo sapiens, 144 h).

For the molecule `CNc1nccn1Cc1cc(CN(C)C)c2c(c1)C(=O)N([C@@H](C)c1cc(OC(F)F)c(F)cn1)CC21CC1` [Compound 55], the IC50 was < 20 nM in experiment [1] and 50 to 200 nM in the experiment on MV4-11 cells (Homo sapiens, 144 h).

Regarding `CCOc1cc([C@H](C)N2CC3(CC3)c3c(CN4CC(F)(F)C4)cc(Cn4ccnc4NC)cc3C2=O)ncc1C#N` [Compound 67, (S)-6-(1-(5′-((3,3-difluoroazetidinyl-1-yl)methyl)-7′-((2-(methylamino)-1H-imidazol-1-yl)methyl)-1′-one-1′H-spiro[cyclopropan-1,4′-isoquinoline]-2′(3′H)-yl)ethyl)-4-ethoxynicotinonitrile], the IC50 in experiment [1] is < 20 nM; with MV4-11 cells (Homo sapiens, 144 h), < 50 nM.

In the case of `CCOc1cc([C@H](C)N2CC3(CC3)c3c(CN(C)C)cc(Cn4ccnc4NC)cc3C2=O)ncc1C#N` [Compound 3], the IC50 in experiment [1] is < 20 nM; in the experiment with MV4-11 cells (Homo sapiens, 144 h), < 50 nM.

As to `CCOc1cc(CN2CC3(CC3)c3c(CN(C)C)cc(Cn4ccnc4NC)cc3C2=O)ncc1C#N` [Compound 71, 6-((5′-((dimethylamino)methyl)-7′-((2-(methylamino)-1H-imidazol-1-yl)methyl)-1′-one-1′H-spiro[cyclopropan-1,4′-isoquinoline]-2′(3′H)-yl)methyl)-4-ethoxynicotinonitrile], the IC50 in experiment [1] is < 20 nM; with MV4-11 cells (Homo sapiens, 144 h) it was < 50 nM.

Regarding `CCOc1cc([C@@H](C)N2C[C@@]3(CC3(F)F)c3c(CN4CCN(C)CC4)cc(Cn4ccnc4NC)cc3C2=O)ncc1F` (stereo in doubt) [Compound 93, 2′-(-1-(4-ethoxy-5-fluoropyridine-2-yl)ethyl)-2,2-difluoro-7′-((2-(methylamino)-1H-imidazol-1-yl)methyl)-5′-((4-methylpiperazin-1-yl)methyl)-2′,3′-dihydro-1′H-spiro[cyclopropan-1,4′-isoquinoline]-1′-one formate salt], the IC50 was < 20 nM in experiment [1] and < 50 nM in the experiment on MV4-11 cells (Homo sapiens, 144 h).

In the case of `CCOc1cc([C@H](C)N2C[C@@]3(CC3(F)F)c3c(CN4CCN(C)CC4)cc(Cn4ccnc4NC)cc3C2=O)ncc1F` (single isomer, unassigned) [Compound 92, 2′-(-1-(4-ethoxy-5-fluoropyridine-2-yl)ethyl)-2,2-difluoro-7′-((2-(methylamino)-1H-imidazol-1-yl)methyl)-5′-((4-methylpiperazin-1-yl)methyl)-2′,3′-dihydro-1′H-spiro[cyclopropan-1,4′-isoquinoline]-1′-one formate salt], the IC50 was < 20 nM in experiment [1] and 50 to 200 nM with MV4-11 cells (Homo sapiens, 144 h).

Regarding `CCOc1cc(C(C)N2CC3(CC3(F)F)c3c(CN(C)C)cc(Cn4ccnc4NC)cc3C2=O)ncc1F` (single isomer, unassigned) [Compound 89], the IC50 was < 20 nM in experiment [1] and < 50 nM with MV4-11 cells.

Consider `CCOc1cc([C@H](C)N2CC3(CC3)c3c(CN4CCN(C)CC4)cc(Cn4ccnc4NC)cc3C2=O)ncc1F` [Compound 37], for which the IC50 in experiment [1] was < 20 nM; with MV4-11 cells (Homo sapiens, 144 h), < 50 nM.

Take `CCOc1cc([C@H](C)N2CC3(CCC3)c3c(CN4CC[C@H](O)C4)cc(Cn4ccnc4NC)cc3C2=O)ncc1F` [Compound 85, 2′-((S)-1-(4-ethoxy-5-fluoropyridine-2-yl)ethyl)-5′-(((S)-3-hydroxylpyrrolidin-1-yl)methyl)-7′-((2-(methylamino)-1H-imidazol-1-yl)methyl)-2′,3′-dihydro-1′H-spiro[cyclobutan-1,4′-isoquinoline]-1′-one]: the IC50 in experiment [1] is < 20 nM; in the experiment on MV4-11 cells (Homo sapiens, 144 h), < 50 nM.

Take `CCOc1cc(CN2CC3(CC3)c3c(CN4CCN(C)CC4)cc(Cn4ccnc4NC)cc3C2=O)nn1C` [Compound 66, 2′-((5-ethoxy-1-methyl-1H-pyrazole-3-yl)methyl)-7′-((2-(methylamino)-1H-imidazol-1-yl)methyl)-5′-((4-methylpiperazin-1-yl)methyl)-2′,3′-dihydro-1′H-spiro[cyclopropan-1,4′-isoquinoline]-1′-one]: the IC50 in experiment [1] is < 20 nM; in the experiment with MV4-11 cells (Homo sapiens, 144 h), < 50 nM.

For the molecule `CCOc1cc([C@H](C)N2CC3(CC3(F)F)c3c(CN(C)C)cc(Cn4ccnc4NC)cc3C2=O)ncc1C#N` (stereo in doubt) [Compound 95, 6-(-1-(5′-((dimethylamino)methyl)-2,2-difluoro-7′-((2-(methylamino)-1H-imidazol-1-yl)methyl)-1′-one-1′H-spiro[cyclopropan-1,4′-isoquinoline]-2′(3′H)-yl)ethyl)-4-ethoxynicotinonitrileformate salt], the IC50 was < 20 nM in experiment [1] and < 50 nM in the experiment with MV4-11 cells (Homo sapiens, 144 h).

For the molecule `CCOc1cc(CN2CC3(CCC3)c3c(CN(C)C)cc(Cn4ccnc4NC)cc3C2=O)ncc1C#N` [Compound 77, 6-((5′-((dimethylamino)methyl)-7′-((2-(methylamino)-1H-imidazol-1-yl)methyl)-1′-one-1′H-spiro[cyclobutan-1,4′-isoquinoline]-2′(3′H)-yl)methyl)-4-ethoxynicotinonitrile], the IC50 in experiment [1] was < 20 nM; in the experiment on MV4-11 cells (Homo sapiens, 144 h), < 50 nM.

For “(S)-4-ethoxy-6-(1-(7′-((2-(methylamino)-1H-imidazol-1-yl)methyl)-5′-(morpholinomethyl)-1′-one-1′H-spiro[cyclopropan-1,4′-isoquinoline]-2′(3′H)-yl)ethyl)nicotinonitrile [Compound 60]”, the IC50 in experiment [1] was < 20 nM; in the experiment on MV4-11 cells, < 50 nM.

For the molecule `[2H]C(C)(c1cc(OCC)c(C#N)cn1)N1CC2(CCC2)c2c(CN(C)C)cc(Cn3ccnc3NC)cc2C1=O` (stereo not drawn) [Compound 101], the IC50 in experiment [1] is < 20 nM; in the experiment with MV4-11 cells (Homo sapiens, 144 h), < 50 nM.

As for `CCOc1cc([C@H](C)N2CC3(CC3)c3c(CN4CC(F)(F)C4)cc(Cn4ccnc4NC)cc3C2=O)ncc1F` [Compound 68, (S)-5′-((3,3-difluoroazetidinyl-1-yl)methyl)-2′-(1-(4-ethoxy-5-fluoropyridine-2-yl)ethyl)-7′-((2-(methylamino)-1H-imidazol-1-yl)methyl)-2′,3′-dihydro-1′H-spiro[cyclopropan-1,4′-isoquinoline]-1′-one], the IC50 in experiment [1] was < 20 nM; in the experiment with MV4-11 cells (Homo sapiens, 144 h) it was 50 to 200 nM.

Consider `CCOc1cc([C@H](C)N2CC3(CCC3)c3c(CN4CCOCC4)cc(Cn4ccnc4NC)cc3C2=O)ncc1C#N` [Compound 72, (S)-4-ethoxy-6-(1-(7′-((2-(methylamino)-1H-imidazol-1-yl)methyl)-5′-(morpholinylmethyl)-1′-one-1′H-spiro[cyclobutyl-1,4′-isoquinoline]-2′(3′H)-yl)ethyl)nicotinonitrile], for which the IC50 in experiment [1] was < 20 nM; with MV4-11 cells (Homo sapiens, 144 h), < 50 nM.
